We go through five compounds from patent US20260325417A1, “TOPICAL SKIN COMPOSITION CONTAINING 1,3-PROPANEDIOL AS ACTIVE INGREDIENT FOR MAINTAINING MICROBIOME BALANCE IN SKIN” (ACTIVON CO.,LTD., priority 2022, published 2026).

One experiment concerns S. aureus. Briefly: Comparison of diol compounds, growth of harmful bacteria. It is filed as cell-based, Staphylococcus aureus. An excerpt: (§1) FIG. 4 illustrates the results of a comparative analysis of the effects of diol compounds, specifically 1,3-propanediol, 2-methyl-1,3-propanediol, 1,3-butanediol, 2,3-butanediol, 1,2-pentanediol, and 1,2-hexanediol on the growth of harmful bacteria (upper graph) and beneficial bacteria (lower graph). FIG. 4A: 1,3-propanediol, FIG. 4B: 2-methyl-1,3-propanediol; FIG. 4C: 1,3-butanediol; FIG. 4D: 2,3-butanediol; FIG. 4E: 1,2-pentanediol; FIG. 4F: 1,2-Hexanediol.
(§2) • 1) Staphylococcus epidermidis ATCC 12228 and Staphylococcus aureus ATCC 6538 strains were obtained from ThermoFisher Scientific and cultured in tryptic soy broth (culture conditions: 32° C. for 18 hours). After culturing, they were diluted with 0.85% NaCl to adjust the absorbance (600 nm) to 0.5-0.6. • 2) 1,3-propanediol was obtained from Sigma-Aldrich. • 3) 2-methyl-1,3-propanediol, 1,3-butanediol, 2,3-butanediol, 1,2-pentanediol, and 1,2-hexanediol were all obtained from Sigma-Aldrich. • 4) Fructan was obtained from Sigma-Aldrich. • 5) Yeast extract was obtained from Sigma-Aldrich.

For the next experiment, the system named is S. epidermidis. In words: Comparison of diol compounds, growth of beneficial bacteria. It is filed as cell-based, Staphylococcus epidermidis. Also noted: key to Effect on the growth of beneficial bacteria (S. epidermidis): ++: Growth promotion; +: No effect; −: Growth inhibition; − −: 50% or more growth inhibition.
From the text: as §1, §2

For `CCCC(O)CO` (centres unmarked) [1,2-pentanediol], the “Effect on the growth of harmful bacteria (S. aureus)” value (shortened to “Effect on the growth … (S. aureus)”) was “+” in the experiment on S. aureus (diol compound 0.1 wt %); “+” with S. aureus (diol compound 1 wt %); “+++ (50% or more inhibition)” in the experiment on S. aureus (diol compound 5 wt %); “+++ (50% or more inhibition)” with S. aureus (diol compound 10 wt %); “+++ (50% or more inhibition)” in the experiment on S. aureus (diol compound 20 wt %). The “Effect on the growth of beneficial bacteria (S. epidermidis)” value (from here on “Effect on the growth … (S. epidermidis)”) is on record as “++” with S. epidermidis (diol compound 0.1 wt %); “−” in the experiment with S. epidermidis (diol compound 1 wt %); “− − (50% or more growth inhibition)” in the experiment on S. epidermidis (diol compound 5 wt %); “− − (50% or more growth inhibition)” with S. epidermidis (diol compound 10 wt %); “− − (50% or more growth inhibition)” in the experiment with S. epidermidis (diol compound 20 wt %).
On to `CCCCC(O)CO` (centres unmarked) [1,2-hexanediol], for which the “Effect on the growth … (S. aureus)” value in the experiment with S. aureus (diol compound 0.1 wt %) was “+”; in the experiment on S. aureus (diol compound 1 wt %), “++”; in the experiment on S. aureus (diol compound 5 wt %) it was “+++ (50% or more inhibition)”; in the experiment with S. aureus (diol compound 10 wt %), “+++ (50% or more inhibition)”; in the experiment with S. aureus (diol compound 20 wt %), “+++ (50% or more inhibition)”. Also, the “Effect on the growth … (S. epidermidis)” value in the experiment with S. epidermidis (diol compound 0.1 wt %) is listed as “++”; in the experiment on S. epidermidis (diol compound 1 wt %) it was “−”; with S. epidermidis (diol compound 5 wt %) it was “− − (50% or more growth inhibition)”; in the experiment on S. epidermidis (diol compound 10 wt %) it was “− − (50% or more growth inhibition)”; in the experiment on S. epidermidis (diol compound 20 wt %), “− − (50% or more growth inhibition)”.
`CC(O)CCO` (centres unmarked) [1,3-butanediol]: the “Effect on the growth … (S. aureus)” value in the experiment on S. aureus (diol compound 0.1 wt %) is listed as “+”; in the experiment with S. aureus (diol compound 1 wt %), “+”; in the experiment with S. aureus (diol compound 5 wt %) it was “++”; with S. aureus (diol compound 10 wt %) it was “++”; in the experiment with S. aureus (diol compound 20 wt %), “+++ (50% or more inhibition)”. Besides, the “Effect on the growth … (S. epidermidis)” value in the experiment on S. epidermidis (diol compound 0.1 wt %) is recorded as “++”; in the experiment on S. epidermidis (diol compound 1 wt %), “−”; in the experiment on S. epidermidis (diol compound 5 wt %) it was “−”; in the experiment with S. epidermidis (diol compound 10 wt %) it was “− − (50% or more growth inhibition)”; in the experiment on S. epidermidis (diol compound 20 wt %), “− − (50% or more growth inhibition)”.
Regarding `CC(CO)CO` [2-methyl-1,3-propanediol], the “Effect on the growth … (S. aureus)” value with S. aureus (diol compound 0.1 wt %) is listed as “+”; in the experiment on S. aureus (diol compound 1 wt %), “+”; in the experiment with S. aureus (diol compound 5 wt %), “++”; with S. aureus (diol compound 10 wt %), “+++ (50% or more inhibition)”; in the experiment with S. aureus (diol compound 20 wt %), “+++ (50% or more inhibition)”. Also, the “Effect on the growth … (S. epidermidis)” value in the experiment on S. epidermidis (diol compound 0.1 wt %) is “+”; in the experiment with S. epidermidis (diol compound 1 wt %) it was “+”; with S. epidermidis (diol compound 5 wt %), “−”; in the experiment on S. epidermidis (diol compound 10 wt %) it was “− − (50% or more growth inhibition)”; in the experiment on S. epidermidis (diol compound 20 wt %), “− − (50% or more growth inhibition)”.
Turning to `CC(O)C(C)O` (centres unmarked) [2,3-butanediol], the “Effect on the growth … (S. aureus)” value in the experiment with S. aureus (diol compound 0.1 wt %) is on record as “+”; in the experiment on S. aureus (diol compound 1 wt %), “+”; in the experiment with S. aureus (diol compound 5 wt %) it was “++”; in the experiment with S. aureus (diol compound 10 wt %) it was “+++ (50% or more inhibition)”; with S. aureus (diol compound 20 wt %), “+++ (50% or more inhibition)”. For the same compound, the “Effect on the growth … (S. epidermidis)” value is listed as “++” in the experiment with S. epidermidis (diol compound 0.1 wt %); “−” in the experiment with S. epidermidis (diol compound 1 wt %); “− − (50% or more growth inhibition)” with S. epidermidis (diol compound 5 wt %); “− − (50% or more growth inhibition)” in the experiment on S. epidermidis (diol compound 10 wt %); “− − (50% or more growth inhibition)” in the experiment with S. epidermidis (diol compound 20 wt %).
